How the values were obtained:
Type in all cases: biochemical
human ENPP2 = human ENPP2 (Homo sapiens (Human), UniProt Q13822); test: Inhibitory activity on human ENPP2 (FS-3 assay); details: human ENPP2, FS-3 substrate, 30 min at 37° C.; read-out: IC50
Protocol: Two-fold dilution of each test compound solution (10 μM, 100% dimethyl sulfoxide) is carried out on 96-well V bottom plate (Costar 3363). After ten-fold dilution of each the test compound solution (100% dimethyl sulfoxide) with deionized distilled water, 10 μL of the diluted each mpound solution (10% dimethyl sulfoxide) was aliquoted to a black flat bottom 96-well plate (Costar 3915).

[1] = system: LPA production in blood serum caused by autotoxin; test: Inhibitory activity on LPA production in human blood serum; details: human blood serum (h), 18:1 LPC, 3 hours at 37° C.
Protocol: (§1) After 100-fold dilution of each test compound solution (5 μL) (10 mM, 100%, dimethyl sulfoxide) with 495 μL of methanol, 3 μL of the diluted methanol solution (1% dimethyl sulfoxide) was mixed with 57 μL of human or mouse blood serum solution in a 1.5 mL tube. […] Subsequently, a solution prepared by diluting 10 mg/mL 18:1 LPC solution (50% ethanol) with blood serum to have concentration of 375 μg/mL was aliquoted in an amount of 2 μL to each tube so as to have 50 μL. Each tube was kept for 3 hours in a water bath at 37° C. to allow a reaction. To the tube obtained after the reaction, 100 μL of 0.5 μM 17:0 LPA solution (chloroform/methanol/water=65/35/8) was aliquoted and mixed therein. Centrifuge was carried out for 10 minutes using a centrifuge at conditions of 14,000 rpm and 4° C. 100 μL of 50% methanol solution is aliquoted first to a 96-well polypropylene plate (Agilent Technology 5042-1385), and the supernatant (50 μL) in a tube after the centrifuge was carefully transferred to the plate followed by mixing. After covering it with Well cap (Thermo 276011), analysis was carried out by LC-MS/MS (Agilent 1260).
(§2) In the following Table 3, the mouse blood serum was described as (m) and human blood serum was described as (h).

[2] = system: LPA production in blood serum caused by autotoxin; test: Inhibitory activity on LPA production in mouse blood serum; details: mouse blood serum (m), 18:1 LPC, 3 hours at 37° C.
Protocol: as §1, §2

Structure (SMILES): O=C(Cc1nnc(-c2cnc(NC3CC=C(c4cccc(Cl)c4)CC3)nc2)o1)N1CCc2[nH]nnc2C1 (stereo not drawn) [Compound 35, 2-[5-(2-{[4-(3-chlorophenyl)cyclohex-3-en-1-yl]amino}pyrimidin-5-yl)-1,3,4-oxadiazol-2-yl]-1-{1H,4H,5H,6H,7H-[1,2,3]triazolo[4,5-c]pyridin-5-yl}ethan-1-one]
- IC50 (human ENPP2): 0.0024 µM
- IC50 [1]: 0.099 µM
- IC50 [2]: 0.046 µM
